Data on three compounds can be found in article PMC3679007 (PLoS ONE, 2013).

Values joined by “and” are separate entries in the source; they are usually repeats but may differ in a detail not shown here. Identical values can stand only once. Like-named read-outs stand apart in the source and are kept apart here. A value given as a limit tells only on which side of the number the result lay.

The target in series [1] is clade 1 isolates from Viet Nam and Cambodia (neuraminidase). The note with it: cited from earlier work.
The target in series [2] is A/chicken/Saraburi/10713/2005 neuraminidase (Influenza A virus (A/chicken/Saraburi/10713/2005(H5N1)), UniProt Q2LDC8). It counts as biochemical, HPAI H5N1 avian influenza virus.
In series [3] the target is A/chicken/Cambodia/CMB07.71LC2/2007 neuraminidase (Influenza A virus, UniProt E1B5P8). It counts as biochemical, HPAI H5N1 avian influenza virus.
Series [4] addresses A/duck/Cambodia/CMB07.72/2007 neuraminidase (Influenza A virus, UniProt E1B5P8). Format: biochemical, HPAI H5N1 avian influenza virus.
For series [5] the following is noted: in vivo; cited from earlier work.
Series [6] concerns the target clade 1.1 HPAI H5N1 isolates from Thailand (neuraminidase) (Influenza A virus, UniProt Q5SDA6). Format: biochemical, HPAI H5N1 avian influenza virus. The following applies: read-out: IC50, Mean (SD).
Series [7] concerns the target A/chicken/Cambodia/CMB07.71LC3/2007 neuraminidase (Influenza A virus (A/chicken/Cambodia/CMB07.71LC3/2007(H5N1)), UniProt E1B5P8). Format: biochemical, HPAI H5N1 avian influenza virus.
In series [8] the target is A/chicken/Suphanburi/2509/2004 neuraminidase (Influenza A virus (H5N1), UniProt Q5SDA6). Format: biochemical, HPAI H5N1 avian influenza virus.
For series [9], the target named is A/chicken/Bangli/BBVD-563/2007 neuraminidase (clade 2.1 wild type) (Influenza A virus, UniProt F1SW80). It counts as biochemical, HPAI H5N1 avian influenza virus.
In series [10] the target is A/chicken/Wates/126/2005 neuraminidase (clade 2.1 reference) (Influenza A virus (H5N1), UniProt Q1W1F4). It counts as biochemical, HPAI H5N1 avian influenza virus. The following applies: read-out: IC50, Mean (SD).
For series [11], the target named is clade 2.1 HPAI H5N1 isolates from Indonesia (neuraminidase) (Influenza A virus, UniProt F5HQR3). It counts as biochemical, HPAI H5N1 avian influenza virus.
Series [12] concerns the target A/chicken/Cambodia/CMB07.71LC4/2007 neuraminidase (Influenza A virus (A/chicken/Cambodia/CMB07.71LC4/2007(H5N1)), UniProt E1B5P8). It counts as biochemical, HPAI H5N1 avian influenza virus.
The subject of series [13] is A/chicken/Bangli/BBVD-562/2007, A/chicken/West Java Tangerang/PTB6/2008, A/chicken/West Java/Tja-31/2008, A/chicken/Payakumbuh/BPPVRII-307/2007 neuraminidases. It counts as biochemical.
Series [14] has as its system clade 2.1 viruses circulating in Indonesia (neuraminidase). The note with it: cited from earlier work.
For series [15], the target named is A/chicken/Cambodia/CMB07.71LC1/2007 neuraminidase (Influenza A virus, UniProt E1B5P8). It counts as biochemical, HPAI H5N1 avian influenza virus.
For series [16], the target named is A/chicken/Vietnam/08/2004 neuraminidase (clade 1.1 wild type) (Influenza A virus (H5N1), UniProt Q6DPL2). It counts as biochemical, HPAI H5N1 avian influenza virus.
Setting [17] is: read-out: 60 min IC50, Preincubation step (+).
[18] abbreviates: read-out: 60 min IC50, Preincubation step (−).

`CCOC(=O)C1=C[C@@H](OC(CC)CC)[C@H](NC(C)=O)[C@@H](N)C1` [Oseltamivir, oseltamivir]: the IC50 in series [1] was 0.5 nM; in series [2] it was 0.68 nM; in [3], 0.78 nM; in series [4], 0.65 nM; in series [6], 0.97 nM; in series [7], 0.51 nM. Moreover, the IC50 is 0.61 nM in series [8]; 19.6 nM in series [9] (setting [17]); 21.4 nM in [9] (setting [18]); 15.9 nM and 19.8 nM in series [10]; greater than 63.7 nM in [11] (read-out: Extreme High Outliers, IC50 cut-off); 21.2 to 28.2 nM and 20.4 to 26.4 nM in series [11] (read-out: IC50, IQR (25th-75th percentile)). In addition, the IC50 in [11] (read-out: IC50, Median) was 24.9 nM and 24.4 nM; in series [11] (read-out: IC50, range) it was 10.6 to 349 nM and 12.6 to 62.4 nM; in [11] (read-out: IC50s of extreme outliers), 63 to 350 nM; in series [11] (read-out: IC50s of many of the outliers) it was greater than 50 nM; in [11] (read-out: Mean and median IC50) it was roughly 25 nM; in series [11] (read-out: Median IC50), 25 nM. The IC50 in series [11] (read-out: Mild High Outliers, IC50 cut-off) was greater than 42.4 nM; in series [12], 0.75 nM; in series [14], 11 nM and 11.5 nM; in series [15] it was 0.77 nM. Besides, the Levels in plasma in series [5] was 400 to 1200 nM. The Levels in saliva entry in series [5] is listed as “less than 5 % of plasma levels”. For the same compound, the “Binding kinetics (in words)” value in [9] was “partial loss of slow binding, and faster dissociation”; in series [13], “no longer slow binding”.
Consider `CCC(CC)[C@H](NC(C)=O)[C@@H]1[C@H](O)[C@@H](C(=O)O)C[C@H]1N=C(N)N` [Peramivir, peramivir], for which the “Ratio (−)/(+) of 60 min IC50s” value was 8.9 in series [16] and 9 in series [9]. Also, the IC50 was 0.7 nM in series [16] (setting [17]), 6.2 nM in series [16] (setting [18]), 0.6 nM in [9] (setting [17]) and 5.4 nM in series [9] (setting [18]). Besides, the “Binding kinetics (in words)” value in [13] is on record as “None of these viruses demonstrated loss of slow binding”.
On to `CC(=O)N[C@H]1[C@H]([C@H](O)[C@H](O)CO)OC(C(=O)O)=C[C@@H]1N=C(N)N` [Zanamivir, zanamivir], for which the “Extreme High Outliers, number of viruses” value in [11] was 0 (>7.2) and 0 (>5.6). The “Binding kinetics (in words)” value in series [13] is recorded as “None of these viruses demonstrated loss of slow binding”.
